Data: patent US10173968B2, “Bishydrazone-based antifungal agents” (University of Kentucky Research Foundation, priority 2016, dated 2019)
In brackets after ≈: the same amount, converted by molar mass. Several values for one entry are separate records, joined by “and”; a condition that tells them apart may be missing. Identical values can stand only once. Like-named read-outs stand apart in the source and are kept apart here.

Assays:
[1] = system: C. albicans ATCC 1003; test: Antifungal MIC, CLSI M27-A3 microbroth dilution; type: cell-based, Candida albicans; conditions: Candida albicans, ATCC1003, read-out: MIC
Experimental: (§1) In vitro MIC testing was performed according to the CLSI M27-A3 standard microbroth dilution methodology for the susceptibility testing of yeasts with minor modifications.

[2] = system: C. albicans ATCC 10231; test: Antifungal MIC, CLSI M27-A3 microbroth dilution; type: cell-based, Candida albicans; conditions: Candida albicans, ATCC10231, C. albicans ATCC 10231, resistant to FLC, ITC, and VOR, read-out: MIC
Experimental: as §1

[3] = system: C. albicans ATCC 1237; test: Antifungal MIC, CLSI M27-A3 microbroth dilution; type: cell-based, Candida albicans; conditions: Candida albicans, ATCC1237, C. albicans ATCC 1237, resistant to FLC, ITC, and VOR, read-out: MIC
Experimental: as §1

[4] = system: C. albicans ATCC 2876; test: Antifungal MIC, CLSI M27-A3 microbroth dilution; type: cell-based, Candida albicans; conditions: Candida albicans, ATCC2876, C. albicans ATCC 2876, susceptible to FLC, ITC, and VOR, read-out: MIC
Experimental: as §1

[5] = system: C. albicans ATCC 90819; test: Antifungal MIC, CLSI M27-A3 microbroth dilution; type: cell-based, Candida albicans; conditions: Candida albicans, ATCC90819, C. albicans ATCC 90819, resistant to FLC, ITC, and VOR, read-out: MIC
Experimental: as §1

[6] = system: C. albicans ATCC 64124; test: Antifungal MIC, CLSI M27-A3 microbroth dilution; type: cell-based, Candida albicans; conditions: Candida albicans, ATCC64124, C. albicans ATCC 64124, resistant to FLC, ITC, and VOR, read-out: MIC
Experimental: as §1

[7] = system: C. albicans ATCC 2310; test: Antifungal MIC, CLSI M27-A3 microbroth dilution; type: cell-based, Candida albicans; conditions: Candida albicans, ATCC2310, C. albicans ATCC 2310, susceptible to FLC, ITC, and VOR, read-out: MIC
Experimental: as §1

[8] = system: P. aeruginosa ATCC 27853; test: Antibacterial MIC, double-dilution method; type: cell-based; conditions: Pseudomonas aeruginosa, ATCC27853, strain I, Gram-negative, read-out: MIC
Experimental: (§2) MIC values were determined against a variety of Gram-positive (strains A-D) and Gram-negative (E-J) bacterial and mycobacterial (K) strains using the double-dilution method, as previously published. Preliminary screening was performed using 500 μM of each compound.

[9] = system: E. coli MC1061; test: Antibacterial MIC, double-dilution method; type: cell-based; conditions: Escherichia coli, strain G, Gram-negative, read-out: MIC
Experimental: as §2

[10] = system: L. monocytogenes ATCC 19115; test: Antibacterial MIC, double-dilution method; type: cell-based; conditions: Listeria monocytogenes, ATCC19115, strain B, Gram-positive, read-out: MIC
Experimental: as §2

[11] = system: B. subtilis 168; test: Antibacterial MIC, double-dilution method; type: cell-based; conditions: Bacillus subtilis, strain A, Gram-positive
Experimental: as §2

[12] = system: E. cloacae ATCC 13047; test: Antibacterial MIC, double-dilution method; type: cell-based; conditions: Enterobacter cloacae, ATCC13047, strain F, Gram-negative, read-out: MIC
Experimental: as §2

[13] = system: MRSA; test: Antibacterial MIC, double-dilution method; type: cell-based; conditions: Staphylococcus aureus, strain C, Gram-positive, read-out: MIC
Experimental: as §2

[14] = system: VRE; test: Antibacterial MIC, double-dilution method; type: cell-based; conditions: Enterococcus, strain D, Gram-positive, read-out: MIC
Experimental: as §2

[15] = system: A. baumannii ATCC 19606; test: Antibacterial MIC, double-dilution method; type: cell-based; conditions: Acinetobacter baumannii, ATCC19606
Experimental: as §2

[16] = system: M. smegmatis MC2-155; test: Antibacterial MIC, double-dilution method; type: cell-based; conditions: Mycolicibacterium smegmatis, MC2155, strain K, mycobacterial
Experimental: as §2

[17] = system: K. pneumoniae ATCC 27736; test: Antibacterial MIC, double-dilution method; type: cell-based; conditions: Klebsiella pneumoniae, ATCC27736
Experimental: as §2

[18] = system: S. enterica ATCC 14028; test: Antibacterial MIC, double-dilution method; type: cell-based; conditions: Salmonella enterica, ATCC14028, strain J, Gram-negative, read-out: MIC
Experimental: as §2

[19] = system: C. albicans strains (panel of seven); test: Antifungal MIC, summary over the panel; type: cell-based, Candida albicans; conditions: Candida albicans; all, most or majority of the fungal strains; read-out: MIC, span over C. albicans strains
Experimental: In vitro MIC testing was performed according to the CLSI M27-A3 standard microbroth dilution methodology for the susceptibility testing of yeasts with minor modifications. […] MIC values were read visually for all tested compounds, and the endpoint was determined as the minimum concentration of compound that yielded complete inhibition relative to growth control.

[20] = system: all bacterial strains tested; test: Antibacterial MIC, summary over the panel; type: cell-based; conditions: read-out: MIC, span over all bacterial strains tested
Experimental: as §2

[21] = C. albicans ATCC 1003, converted from μg/mL
[22] = converted from μM, read-out: MIC
[23] = strain E, Gram-negative, converted from μM, read-out: MIC
[24] = strain E, Gram-negative, range 0.5 to 500 μM, read-out: MIC
[25] = range 0.5 to 500 μM, read-out: MIC
[26] = strain H, Gram-negative, converted from μM, read-out: MIC
[27] = strain H, Gram-negative, range 0.5 to 500 μM, read-out: MIC

Compound Cl.N#Cc1ccc(N/N=C/c2ccc(-c3ccc(/C=N/NC(=N)N)cc3)cc2)cc1 [Compound 7Ae, (E)-2-((4′-((E and Z)-(2-(4-Cyanophenyl)hydrazono)methyl)-[1,1′-biphenyl]-4-yl)methylene)hydrazine-1-carboximidamide monohydrochloride] has a melting point of 308 to 310 °C, an MIC [1, 21] of 18.7 µM and an MIC [1] of 7.8 mg/L. For the same compound, the MIC ([2]; converted from μg/mL) was 37.3 µM, the MIC [2] was 15.6 mg/L and the MIC ([3]; converted from μg/mL) was 37.3 µM. For the same compound, the MIC [3] was 15.6 mg/L, the MIC ([4]; converted from μg/mL) was 37.3 µM and the MIC [4] was 15.6 mg/L. For the same compound, the MIC ([5]; converted from μg/mL) was 37.3 µM, the MIC [5] was 15.6 mg/L and the MIC ([6]; converted from μg/mL) was 74.9 µM. The MIC [6] was 31.3 mg/L, the MIC ([7]; converted from μg/mL) was 37.3 µM and the MIC [7] was 15.6 mg/L. The MIC ([8]; converted from μM) was 13.1 to 26.1 mg/L, the MIC ([8]; range 0.5 to 500 μM) was 31.3 to 62.5 µM and the MIC ([9]; converted from μM) was 26.1 to 52.2 mg/L. For the same compound, the MIC ([9]; range 0.5 to 500 μM) was 62.5 to 125 µM, the MIC ([10]; converted from μM) was 3.3 mg/L and the MIC ([10]; range 0.5 to 500 μM) was 7.8 µM. It also gave an MIC ([11]; converted from μM) of 13.1 mg/L, an MIC ([11]; range 0.5 to 500 μM) of 31.3 µM and an MIC ([12]; converted from μM) of 209 mg/L. For the same compound, the MIC ([12]; range 0.5 to 500 μM) was 500 µM, the MIC ([13]; converted from μM) was 6.5 mg/L and the MIC ([13]; range 0.5 to 500 μM) was 15.6 µM. The MIC ([14]; converted from μM) was 0.8 to 1.6 mg/L, the MIC ([14]; range 0.5 to 500 μM) was 2 to 3.9 µM and the MIC [15] was 15.6 µM to 31.3 µM and 6.5 µg/mL to 13.1 µg/mL. For the same compound, the MIC [16, 22] was 6.5 to 13.1 mg/L, the MIC ([16]; range 0.5 to 500 μM) was 15.6 to 31.3 µM and the MIC [17] was 15.6 µM to 31.3 µM and 6.5 µg/mL to 13.1 µg/mL. It also gave an MIC ([18]; converted from μM) of 6.5 mg/L, an MIC ([18]; range 0.5 to 500 μM) of 15.6 µM and an MIC [19] of 7.8 to 15.6 mg/L.

With Cl.N=C(N)N/N=C/c1ccc(-c2ccc(/C=N/Nc3ccc(Cl)cc3Cl)cc2)cc1 [Compound 7Ag, (E)-2-((4′-((E)-(2-(2,4-dichlorophenyl)hydrazono)methyl)-[1,1′-biphenyl]-4-yl)methylene)hydrazine-1-carboximidamide hydrochloride] the melting point was 356 to 358 °C, the MIC [1, 21] was 16.8 µM and the MIC [1] was 7.8 mg/L. It also gave an MIC ([2]; converted from μg/mL) of 16.8 µM, an MIC [2] of 7.8 mg/L and an MIC ([3]; converted from μg/mL) of 33.8 µM. It also gave an MIC [3] of 15.6 mg/L, an MIC ([4]; converted from μg/mL) of 33.8 µM and an MIC [4] of 15.6 mg/L. The MIC ([5]; converted from μg/mL) was 67.8 µM, the MIC [5] was 31.3 mg/L and the MIC ([6]; converted from μg/mL) was 67.8 µM. It also gave an MIC [6] of 31.3 mg/L, an MIC ([7]; converted from μg/mL) of 16.8 µM and an MIC [7] of 7.8 mg/L. For the same compound, the MIC ([8]; converted from μM) was over 231 mg/L, the MIC ([8]; range 0.5 to 500 μM) was over 500 µM and the MIC ([9]; converted from μM) was over 231 mg/L. It also gave an MIC ([9]; range 0.5 to 500 μM) of over 500 µM, an MIC ([10]; converted from μM) of 3.6 mg/L and an MIC ([10]; range 0.5 to 500 μM) of 7.8 µM. The MIC ([11]; converted from μM) was over 231 mg/L, the MIC ([11]; range 0.5 to 500 μM) was over 500 µM and the MIC ([12]; converted from μM) was over 231 mg/L. For the same compound, the MIC ([12]; range 0.5 to 500 μM) was over 500 µM, the MIC ([13]; converted from μM) was 3.6 mg/L and the MIC ([13]; range 0.5 to 500 μM) was 7.8 µM. The MIC ([14]; converted from μM) was 3.6 mg/L, the MIC ([14]; range 0.5 to 500 μM) was 7.8 µM and the MIC [15, 23] was over 231 mg/L. For the same compound, the MIC [15, 24] was over 500 µM, the MIC [16, 22] was 1.8 mg/L and the MIC [16, 25] was 3.9 µM. The MIC [17, 26] was over 231 mg/L, the MIC [17, 27] was over 500 µM and the MIC ([18]; converted from μM) was over 231 mg/L. The MIC ([18]; range 0.5 to 500 μM) was over 500 µM and the MIC [19] was 7.8 to 15.6 mg/L.

CC1COc2c(N3CCN(C)CC3)c(F)cc3c(=O)c(C(=O)O)cn1c23 (stereo not shown) [OFX, ofloxacin, reference compound] showed an MIC ([8]; converted from μM) of 1.4 mg/L, an MIC ([8]; range 0.5 to 500 μM) of 3.9 µM and an MIC ([9]; converted from μM) of 1.4 to 2.8 mg/L. For the same compound, the MIC ([9]; range 0.5 to 500 μM) was 3.9 to 7.8 µM, the MIC ([10]; converted from μM) was 0.4 mg/L and the MIC ([10]; range 0.5 to 500 μM) was 1 µM. For the same compound, the MIC ([11]; converted from μM) was at most 0.2 mg/L, the MIC ([11]; range 0.5 to 500 μM) was at most 0.5 µM and the MIC ([12]; converted from μM) was at most 0.2 mg/L. It also gave an MIC ([12]; range 0.5 to 500 μM) of at most 0.5 µM, an MIC ([13]; converted from μM) of 0.4 mg/L and an MIC ([13]; range 0.5 to 500 μM) of 1 µM. For the same compound, the MIC ([14]; converted from μM) was 2.8 mg/L, the MIC ([14]; range 0.5 to 500 μM) was 7.8 µM and the MIC [15, 23] was at most 0.2 mg/L. For the same compound, the MIC [15, 24] was at most 0.5 µM, the MIC [16, 22] was 5.6 mg/L and the MIC [16, 25] was 15.6 µM. The MIC [17, 26] was 5.6 to 11.3 mg/L, the MIC [17, 27] was 15.6 to 31.3 µM and the MIC ([18]; converted from μM) was 5.6 to 11.3 mg/L. For the same compound, the MIC ([18]; range 0.5 to 500 μM) was 15.6 to 31.3 µM and the MIC [20] was 0.5 to 31.3 µM (≈ 0.181 to 11.3 µg/mL).
